{
  "source": "patent US11512097B2",
  "about": "“Heterocyclic compounds as Delta-5 desaturase inhibitors and methods of use” (Amgen Inc., priority 2019, dated 2022)",
  "key": {"[1]": {"target": "T1, Delta-5-Desaturase (D5D), membrane preparations of D5D-overexpressing HEK293 6E cells (Homo sapiens, UniProt O60427)", "T1 construct": "expressed in transfected cells; host or cells: HEK293 6E cells (membrane preparation)", "T1 sequence (O60427 whole entry, species assumed)": "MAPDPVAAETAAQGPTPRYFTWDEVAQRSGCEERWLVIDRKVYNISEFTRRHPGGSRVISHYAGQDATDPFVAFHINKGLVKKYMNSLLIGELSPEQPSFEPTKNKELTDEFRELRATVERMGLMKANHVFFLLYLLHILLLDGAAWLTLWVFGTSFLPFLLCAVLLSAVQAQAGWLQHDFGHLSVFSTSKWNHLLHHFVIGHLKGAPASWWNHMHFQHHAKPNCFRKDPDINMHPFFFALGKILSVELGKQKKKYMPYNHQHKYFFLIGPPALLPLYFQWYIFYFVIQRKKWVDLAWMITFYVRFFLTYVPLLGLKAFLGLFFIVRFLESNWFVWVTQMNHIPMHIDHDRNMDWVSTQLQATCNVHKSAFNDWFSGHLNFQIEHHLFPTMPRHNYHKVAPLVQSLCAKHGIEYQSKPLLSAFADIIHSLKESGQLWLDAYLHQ", "assay": "In vitro measurement of Delta-5-Desaturase inhibitory activity using DGLA-CoA and Arachidonyl-CoA mass spectrometric assays", "format": "biochemical", "conditions": "D5D membrane 10 μg/mL, one-hour incubation, average of at least two independent runs", "procedure,_shortened": "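Substrate mix (0.01 mM DGLA with NADH, ATP, coenzyme A) was incubated 1 h at room temperature with HEK293 6E D5D membranes at 10 μg/mL final, pH 7.5. Negative-mode SPE-MS/MS monitored DGLA-CoA (m/z 526.6) and arachidonyl-CoA (m/z 525.6). Inhibition normalised to DMSO and no-enzyme wells gave IC50s, mean of ≥2 runs.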"}, "[2]": {"target": "T2, Delta-5-Desaturase (D5D) (Mus musculus, UniProt Q920L1)", "T2 construct": "tissue Jackson Laboratories strain #3800050; host or cells: whole animal (DIO mice)", "T2 sequence (Q920L1 1-447)": "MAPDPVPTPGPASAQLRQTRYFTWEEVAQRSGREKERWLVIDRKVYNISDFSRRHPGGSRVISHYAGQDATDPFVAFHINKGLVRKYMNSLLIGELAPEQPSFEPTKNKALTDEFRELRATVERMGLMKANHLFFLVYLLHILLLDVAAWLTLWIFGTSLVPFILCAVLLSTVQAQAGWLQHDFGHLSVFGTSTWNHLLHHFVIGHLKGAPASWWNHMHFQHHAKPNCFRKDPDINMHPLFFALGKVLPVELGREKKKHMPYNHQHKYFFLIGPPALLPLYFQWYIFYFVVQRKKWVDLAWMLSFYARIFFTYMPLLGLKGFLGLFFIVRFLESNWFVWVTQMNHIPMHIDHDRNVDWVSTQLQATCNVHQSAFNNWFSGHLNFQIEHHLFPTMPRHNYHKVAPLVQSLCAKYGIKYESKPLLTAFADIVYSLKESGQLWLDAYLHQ", "assay": "In vivo measurement of Delta-5-Desaturase inhibitory activity (plasma AA/DGLA ratio in DIO mice)", "conditions": "single oral dose 30 mg/kg, relative to vehicle group", "experimental": "In Vivo Measurement of Delta-5-Desaturase Inhibitory Activity\nDiet-induced obese (DIO; Jackson Laboratories strain #[…]) mice were used to screen for pharmacodynamic (PD) activity of test compounds. Generally, 14 to 24 week old DIO mice, were administered test compounds formulated in the vehicle of 2% hydroxypropyl methylcellulose (HPMC) and 1% Tween80. Animals were dosed on body weight by oral gavage with a single dose (30 mg/kg) for PD studies. Necropsy included plasma collection for PUFA analysis. 10 μl of plasma or standards diluted in surrogate matrix (65 g/l bovine serum albumin in Dulbecco's phosphate-buffered saline) were mixed with 10 μl of an internal standard (100 μM alpha-linolenic acid-d14 (ALA-d14, Cayman Chemical)) in a 96 well plate. 100 μl of 2N NAOH was added to the mixture for subsequent saponification at 65° C. for 1 hour. The mixture was then acidified with 50 μl of formic acid followed by two consecutive hexane extractions. Hexane (500 μl) was added and the mixture thoroughly mixed by vortexing, followed by centrifugation at 4,000 rpm for 15 min. The hexane phase was transferred to a new 1 ml 96 well plate and the remaining aqueous layer was extracted with hexane. The organic extracts were combined and the solvent was removed by placing the plate under nitrogen gas at 55° C. 250 μl of 90% methanol was added to the plate followed by vortexing for 2 minutes. 200 μl of the samples were transferred to a new 96 well polypropylene plate. The samples were analyzed on a LC-MS/MS for the following PUFAs: arachidonic acid (AA), dihomo-gamma-linolenic acid (DGLA), with ALA-d14 as the internal standard. Description of the LC-MS/MS method: 5 μl of sample was injected onto a Poroshell 120 EC-C18 3.0×50 mm, 1.9 μm id column. […] The PUFA peak areas were quantified by using the SCIEX Analyst software. […] The relative decrease of the AA/DGLA ratio of the test compound administered group relative to the vehicle administered group was calculated and used as an index for the degree of D5D inhibition. […]"}},
  "data": [
    {"smiles": "Cc1nn2c(=O)c(-c3cnn(CC(F)(F)C(F)(F)F)c3)c(C(F)(F)F)nc2s1", "note": "[Example 2, 2-methyl-6-[1-(2,2,3,3,3-pentafluoropropyl)-1H-pyrazol-4-yl]-7-(trifluoromethyl)-5H-[1,3,4]thiadiazolo[3,2-a]pyrimidin-5-one]", "values": [
      {"measurement": "IC50", "setting": "[1]", "result": 19.6, "unit": "nM"},
      {"measurement": "Average % D5D Inhibition expressed as Plasma Endogenous AA/DGLA Ratio", "setting": "[2]", "result": 66, "unit": "%"}
    ]}
  ]
}
